Experiment [1] relates to PC-12. In words: Potentiation of NGF-induced neurite outgrowth in rat PC12 cells at 0.1 to 10 uM after 4 days using methylene blue staining by phase-contrast microscopy. Type of experiment: functional, cell-based.
The test system of experiment [2] is PC-12. In words: Potentiation of NGF-induced neurite outgrowth in rat PC12 cells after 4 days using methylene blue staining by phase-contrast microscopy. Format: functional, cell-based.

Calls of active or inactive are those of the source. The calls are words filed in the database; no cut-off is given here.

On to `CCCCC/C=C\CCCC/C=C/C=C/C(=O)NCC(C)C`, for which the result with PC-12 [1] was inactive. For the compound `O=C(CCC(=O)c1ccc2c(c1)OCO2)C(=O)N1CCCCC1`, the Activity entry with PC-12 [2] was “Dose-dependent effect”. On to `O=C(/C=C/C=C/c1ccc2c(c1)OCO2)N1CCCCC1`, for which the result in the experiment on PC-12 [1] was inactive. Same read-out and setting: the result for `O=C(/C=C/CCCCCCCC/C=C/c1ccc2c(c1)OCO2)N1CCCCC1` reads “inactive”.

Values taken from ChEMBL document CHEMBL2331478, “Evaluation of constituents of Piper retrofractum fruits on neurotrophic activity” (J Nat Prod, 2013).
